“Also recorded” adds a separate entry of the source.
What was measured:
[1] = molecular target: AChE from Electrophorus electricus (eeAChE) (Electrophorus electricus, UniProt O42275); test: biochemical; format: biochemical; settings: for IC50: [S] = 121 µM, mean ± SD; for fold more potent eeAChE inhibitor than 10a: IC50 ratio vs 10a; for Enantioselectivity (eeAChE): IC50(Xa:AChE)/IC50(Xb:AChE)
Description: (§1) A Thermo Scintific^TM Varioskan^TM LUX microplate reader and Greiner F-bottom 96-well plates were used. Cornish-Bowden plots (1/V vs. [I] and [S]/V vs. [I]) were used for the visualisation of the mode of inhibition.
(§2) A minor modification of the Ellman assay was used in order to measure the IC50 values.

[2] = molecular target: T1, BuChE from equine serum (eqBuChE) (Equus caballus, UniProt P81908); test: biochemical; format: biochemical; settings: for IC50: [S] = 112 µM, mean ± SD; for Enantioselectivity (eqBuChE): IC50(Xa:BuChE)/IC50(Xb,BuChE)
T1 construct: BuChE from equine serum; from tissue; host or cells: equine serum
Description: as §1, §2

[3] = system: A549, HBL-100, HeLa, SW1573, T-47D and WiDr cells; test: Antiproliferative SRB assay, panel of six cancer cell lines; format: cell-based; settings: Homo sapiens, 48 h exposure, whole panel, read-out: GI50 against panel of six human cancer cell lines
Description: (§3) For the antiproliferative tests, we applied our implementation of the National Cancer Institute (NCI) screening protocol. As a model of human solid tumour cells, we selected the cell lines A549 (non-small cell lung), HBL-100 (breast), HeLa (cervix), SW1573 (non-small cell lung), T-47D (breast), and WiDr (colon). Cell seeding densities, based on the cell line doubling time, were 2500 (A549, HBL-100, HeLa and SW1573) or 5000 (T-47D and WiDr) cells/well. Compounds were initially dissolved in DMSO at 400 times the desired final maximum test concentration. […] Each compound was tested in triplicate at different dilutions ranging from 1 to 100 μM. Drug treatment began on day 1 after sowing. The drug incubation times were 48 h, after which the cells were precipitated with ice-cold TCA (50% w/v) and fixed for 60 min at 4 °C. Then the SRB test was performed. The optical density (OD) of each well was measured at 530 nm using a microplate absorbance reader (PowerWave XS, BioTek Instruments Inc.). Values were corrected for background OD of wells containing medium only[39].
(§4) Antiproliferative activity of our heterodimers was investigated for six cancer cell lines including A549, HBL-100, HeLa, SW1573, T-47D and WiDr.

[4] = system: A549 (non-small cell lung) cells; test: Antiproliferative SRB assay, A549; format: cell-based, human; settings: 48 h exposure
Description: as §3, §4

HBL-100 (breast) cells = test: Antiproliferative SRB assay, HBL-100; format: cell-based; settings: Homo sapiens, 48 h exposure
Description: as §3, §4

HeLa (cervix) cells = test: Antiproliferative SRB assay, HeLa; format: cell-based; settings: Homo sapiens, 48 h exposure
Description: as §3, §4

[5] = system: SW1573 (non-small cell lung) cells; test: Antiproliferative SRB assay, SW1573; format: cell-based; settings: Homo sapiens, 48 h exposure
Description: as §3, §4

T-47D (breast) cells = test: Antiproliferative SRB assay, T-47D; format: cell-based; settings: Homo sapiens, T47D, 48 h exposure
Description: as §3, §4

WiDr (colon) cells = test: Antiproliferative SRB assay, WiDr; format: cell-based; settings: Homo sapiens, 48 h exposure
Description: as §3, §4

AChE = settings: cited from earlier work; for inhibition of AChE: 20 μM inhibitor concentration

T1 sequence (P81908 whole entry): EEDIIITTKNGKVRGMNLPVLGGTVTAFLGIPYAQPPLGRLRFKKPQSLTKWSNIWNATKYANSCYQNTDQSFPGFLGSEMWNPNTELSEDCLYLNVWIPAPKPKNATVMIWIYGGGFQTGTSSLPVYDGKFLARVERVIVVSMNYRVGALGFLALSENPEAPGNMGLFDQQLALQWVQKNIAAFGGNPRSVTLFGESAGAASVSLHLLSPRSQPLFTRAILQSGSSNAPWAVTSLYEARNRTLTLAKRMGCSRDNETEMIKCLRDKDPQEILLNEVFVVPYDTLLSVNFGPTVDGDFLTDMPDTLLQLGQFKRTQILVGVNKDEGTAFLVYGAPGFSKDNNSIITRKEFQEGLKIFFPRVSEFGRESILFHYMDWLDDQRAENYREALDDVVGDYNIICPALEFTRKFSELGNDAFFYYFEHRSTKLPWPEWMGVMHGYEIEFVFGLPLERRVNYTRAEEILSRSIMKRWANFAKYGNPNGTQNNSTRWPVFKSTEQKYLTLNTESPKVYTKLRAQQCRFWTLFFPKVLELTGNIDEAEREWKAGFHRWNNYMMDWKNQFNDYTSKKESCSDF
Chain of AChE from Electrophorus electricus (eeAChE) (O42275 24-633): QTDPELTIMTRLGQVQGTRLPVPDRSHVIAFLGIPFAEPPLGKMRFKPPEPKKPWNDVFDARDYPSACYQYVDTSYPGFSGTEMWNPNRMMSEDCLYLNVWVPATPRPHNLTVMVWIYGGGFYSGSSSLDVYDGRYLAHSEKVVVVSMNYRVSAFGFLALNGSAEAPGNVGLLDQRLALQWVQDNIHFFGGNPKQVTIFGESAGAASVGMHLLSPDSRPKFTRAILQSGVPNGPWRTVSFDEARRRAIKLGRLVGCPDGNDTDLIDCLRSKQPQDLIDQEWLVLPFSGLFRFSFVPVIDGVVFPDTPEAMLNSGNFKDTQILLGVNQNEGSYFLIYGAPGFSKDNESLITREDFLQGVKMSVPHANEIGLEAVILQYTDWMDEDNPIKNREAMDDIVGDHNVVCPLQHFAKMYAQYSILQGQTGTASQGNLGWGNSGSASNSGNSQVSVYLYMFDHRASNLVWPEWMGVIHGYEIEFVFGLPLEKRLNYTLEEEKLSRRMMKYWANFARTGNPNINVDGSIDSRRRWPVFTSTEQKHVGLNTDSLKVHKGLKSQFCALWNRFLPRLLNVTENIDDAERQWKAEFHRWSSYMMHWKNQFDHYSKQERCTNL

OC[C@@H]1[C@@H](O)[C@H](O)CN1Cc1cn(CCCNc2c3c(nc4ccccc24)CCCC3)nn1 [Compound 10a]
fold less potent eeAChE inhibitor than 10b ([1]; IC50 ratio vs 10b, less potent): ca. 3.5 fold
IC50 [1]: 530 ± 30 nM
IC50 [2]: 184 ± 16 nM
GI50 [3]: > 100000 nM

OCC1C(O)C(O)CN1Cc1cn(CCCCCCNc2c3c(nc4ccccc24)CCCC3)nn1 (centres unmarked) [Compound 11a]
GI50 [4]: 94000 ± 9600 nM
GI50 ([4]; Homo sapiens, A549, 48 h): < 100000 nM
GI50 (HBL-100 (breast) cells): > 100000 nM
fold more potent eeAChE inhibitor than 9a ([1]; IC50 ratio vs 9a): ca. 43 fold
fold more potent eeAChE inhibitor than 10a [1]: 55 fold
IC50 [1]: 9.7 ± 1 nM
fold stronger eqBuChE inhibitor than 9a ([2]; IC50 ratio vs 9a): roughly 11 fold
fold stronger eqBuChE inhibitor than 10a ([2]; IC50 ratio vs 10a): 20 fold
IC50 [2]: 9.1 ± 0.3 nM
GI50 (HeLa (cervix) cells): 93000 ± 12000 nM
GI50 [5]: > 100000 nM
GI50 (T-47D (breast) cells): > 100000 nM
GI50 (WiDr (colon) cells): > 100000 nM

OC[C@H]1[C@H](O)[C@@H](O)CN1Cc1cn(CCCNc2c3c(nc4ccccc24)CCCC3)nn1 [Compound 10b]
Enantioselectivity (eeAChE) [1]: 3.5
fold more potent eeAChE inhibitor than 10a [1]: ca. 4 fold
IC50 [1]: 150 ± 38 nM
Enantioselectivity (eqBuChE) [2]: 0.79
IC50 [2]: 232 ± 28 nM
GI50 [3]: > 100000 nM

COc1ccc2c3c1O[C@@H]1C[C@H](O)C=C[C@]31CCN(C)C2 [Compound 2b]
inhibition of AChE (AChE): ca. 4%

OC[C@H]1[C@H](O)[C@@H](O)CN1Cc1cn(CCCCCCNc2c3c(nc4ccccc24)CCCC3)nn1 [Compound 11b]
GI50 [4]: 84000 ± 28000 nM
GI50 ([4]; Homo sapiens, A549, 48 h): < 100000 nM
GI50 (HBL-100 (breast) cells): > 100000 nM
Mode of inhibition eeAChE ([1]; Cornish-Bowden plots): mixed; also recorded: (mixed)
Enantioselectivity (eeAChE) [1]: 0.91
fold more potent eeAChE inhibitor than 9b ([1]; IC50 ratio vs 9b): ca. 138 fold
fold more potent eeAChE inhibitor than 10b ([1]; IC50 ratio vs 10b): ~14 fold
IC50 [1]: 10.7 ± 0.3 nM
Ki ([1]; mixed inhibition, Cornish-Bowden, read-out: Ki (competitive inhibition constant) eeAChE): 19 nM
Mode of inhibition eqBuChE ([2]; Cornish-Bowden plots): mixed; also recorded: (mixed)
Enantioselectivity (eqBuChE) [2]: 1.1
fold stronger eqBuChE inhibitor than 9b ([2]; IC50 ratio vs 9b): 22 fold
fold stronger eqBuChE inhibitor than 10b ([2]; IC50 ratio vs 10b): 29 fold
IC50 [2]: 8.1 ± 0.1 nM
Ki ([2]; mixed inhibition, Cornish-Bowden, read-out: Ki (competitive inhibition constant) eqBuChE): 10 nM
GI50 (HeLa (cervix) cells): > 100000 nM
GI50 [5]: 97000 ± 5400 nM
GI50 (T-47D (breast) cells): > 100000 nM
GI50 (WiDr (colon) cells): > 100000 nM

COc1ccc2c3c1O[C@H]1C[C@@H](O)C=C[C@@]31CCN(C)C2 [(-)-Galantamine (2a), (-)-Galantamine]
inhibition of AChE (AChE): ca. 94%

OC[C@H]1[C@H](O)[C@@H](O)CN1Cc1cn(CCNc2c3c(nc4ccccc24)CCCC3)nn1 [Compound 9b]
Enantioselectivity (eeAChE) [1]: 0.28
IC50 [1]: 1480 ± 240 nM
Enantioselectivity (eqBuChE) [2]: 0.54
IC50 [2]: 179 ± 25 nM
GI50 [3]: > 100000 nM

OC[C@@H]1[C@@H](O)[C@H](O)CN1Cc1cn(CCNc2c3c(nc4ccccc24)CCCC3)nn1 [Compound 9a]
IC50 [1]: 420 ± 10 nM
IC50 [2]: 96 ± 5 nM
GI50 [3]: > 100000 nM

CNC(=O)Oc1ccc2c(c1)[C@]1(C)CCN(C)[C@@H]1N2C [(-)-physostigmine (3a), (-)-physostigmine]
fold stronger AChE inhibitor than (+)-physostigmine (3b) (AChE; depending on the enzyme source): 25- to 1000 fold

Reference: PMC9721440, “Investigation of the enantioselectivity of acetylcholinesterase and butyrylcholinesterase upon inhibition by tacrine-iminosugar heterodimers” (Journal of Enzyme Inhibition and Medicinal Chemistry, 2022)
